# Measurements as given in PMC12222587, “A2B adenosine receptor-triggered intracellular calcium mobilization: Cell type-dependent involvement of Gi, Gq, Gs proteins and protein kinase C” (Purinergic Signalling, 2025).
# Entries after “also recorded” stand apart in the source; their conditions may differ. *1 amine or outer side, *2 acyl side, *3 side chain or, on linkers, in order; H or OH if unused. Where a SMILES comes first, the peptide text is derived from it. Bridges are numbered along the chain shown (N, C = ends). [ ]: non-standard residue; d: D form. X2 = CC(=O)NC(C(=O)OC(C(C)C)C(N[*:1])C(=O)[*:2])C(O)C(C)C; PhLac = O=C(O)[CH](O)Cc1ccccc1; NMeT = CN[CH](C(=O)O)[CH](C)O; NMeA = CN[CH](C)C(=O)O; NMeDha = C=C(NC)C(=O)O
# Legend:
# M2 muscarinic receptor = experiment: Calcium increase, CHO cells expressing recombinant M2 muscarinic receptor (carbachol); type: cell-based; settings: carbachol 10 µM, read-out: IC50 in inhibiting the effect of carbachol (Ca2+ increase)
# A1AR [1] = experiment: Calcium increase, CHO cells expressing recombinant A1AR (CCPA); type: cell-based; settings: recombinant A1 receptor, CCPA 1 µM, read-out: IC50 in inhibiting the effect of CCPA (Ca2+ increase)
# A2AAR = target: T1, A2AAR (Homo sapiens, UniProt P29274); experiment: cAMP accumulation, HEK293 cells, A2AAR-mediated stimulation (CGS21680); type: cell-based
# T1 construct: host or cells: HEK293
# Procedure: (§1) HEK293, T24 bladder cancer and MDA-MB-231 breast cell lines were cultured in DMEM medium containing 10% fetal bovine serum, 100 units/ml penicillin, 100 μg/ml streptomycin, and 2 μmol/ml glutamine. For the assay of 3′,5′-cyclic adenosine monophosphate (cAMP), cells were plated in 96-well (4 × 10^4 cells/well) clear plates in 100 μl of medium overnight. Cell culture medium was then replaced with 80 µl HBSS buffer containing 20 mM HEPES, phosphodiesterase inhibitor rolipram (10 μM), and 3 units/ml adenosine deaminase (Worthington Biochemical, Lakewood, NJ, USA) for 30 min followed by agonist addition to the mixture, which was then incubated for 20 min. The treatment of YM or FR was 20 min before agonist addition.
# LPA receptor = experiment: Intracellular calcium mobilization, HEK293 cells, endogenous LPA receptor; type: cell-based, human
# A1AR [2] = target: T2, A1AR (Homo sapiens, UniProt P30542); experiment: Intracellular calcium mobilization, HEK293 cells expressing recombinant A1AR (CCPA); type: cell-based; settings: for Effect on A1AR (CCPA)-mediated calcium mobilization: HEK293 cells overexpressing A1AR, Gq/11 siRNA 250 nM, PTX 200 ng/ml overnight, FR, YM 20 min before agonist
# T2 construct: expressed in transfected cells
# T2 sequence (P30542 1-326): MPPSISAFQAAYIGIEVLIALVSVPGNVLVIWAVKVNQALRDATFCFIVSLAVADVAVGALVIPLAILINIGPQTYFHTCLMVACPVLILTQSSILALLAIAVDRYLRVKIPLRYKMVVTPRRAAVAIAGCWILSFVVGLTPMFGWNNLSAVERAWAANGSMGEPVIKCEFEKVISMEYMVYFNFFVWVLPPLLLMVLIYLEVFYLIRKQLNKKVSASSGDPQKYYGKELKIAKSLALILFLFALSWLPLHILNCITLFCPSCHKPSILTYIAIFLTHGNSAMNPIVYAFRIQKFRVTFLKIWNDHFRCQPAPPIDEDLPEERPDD
# P2Y1R [3] = target: T3, P2Y1R (Homo sapiens, UniProt P47900); experiment: Intracellular calcium mobilization, T24 bladder cancer cells, native P2Y1R (MRS2365); type: cell-based; settings: for Effect on native P2Y1R (MRS2365)-triggered calcium mobilization: YM 300 nM, FR 300 nM, PTX 200 ng/ml overnight
# β2-adrenergic receptor = β2-adrenergic receptor (Homo sapiens, UniProt P07550); experiment: Intracellular calcium mobilization, T24 bladder cancer cells, endogenous β2-adrenergic receptor; type: cell-based; settings: T24 cells; for Effect on formoterol-induced calcium mobilization (β2-adrenergic receptor): PTX 200 ng/ml, CTX 500 ng/ml
# A1AR [4] = target: T2, A1AR; experiment: cAMP accumulation, HEK293 cells, A1AR-mediated inhibition of forskolin-stimulated cAMP (CCPA); type: cell-based
# Procedure: as §1
# A2BAR = target: T4, A2BAR (Homo sapiens, UniProt P29275); experiment: Intracellular calcium mobilization, T24 bladder cancer cells, native A2BAR (NECA); type: cell-based; settings: T24 cells; YM 300 nM, FR 300 nM; PTX 200 ng/ml, CTX 500 ng/ml overnight; other inhibitors 20 min before NECA
# T4 sequence (P29275 1-332): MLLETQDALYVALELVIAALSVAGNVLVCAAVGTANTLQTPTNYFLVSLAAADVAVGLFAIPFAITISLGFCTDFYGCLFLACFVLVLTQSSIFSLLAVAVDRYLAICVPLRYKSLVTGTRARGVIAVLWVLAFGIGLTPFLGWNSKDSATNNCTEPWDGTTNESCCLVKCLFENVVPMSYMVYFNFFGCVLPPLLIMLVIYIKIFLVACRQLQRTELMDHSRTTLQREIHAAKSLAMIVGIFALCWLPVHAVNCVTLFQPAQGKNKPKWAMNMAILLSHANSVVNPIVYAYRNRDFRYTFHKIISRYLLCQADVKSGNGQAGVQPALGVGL
# P2Y1R [5] = target: T3, P2Y1R; experiment: Intracellular calcium mobilization, HEK293 cells, native P2Y1R (MRS2365); type: cell-based; settings: for Effect on P2Y1R (MRS2365)-mediated calcium mobilization: Gq/11 siRNA 250 nM, PTX 200 ng/ml overnight, FR, YM 20 min before agonist
# P2Y1R [6] = settings: 1321N1 astrocytoma (P2Y1-overexpressing); ref Gao and Jacobson, 2017 [29]; cited from earlier work
# HMC-1 cells = settings: HMC-1 cells; ref Feoktistov et al., 1995 [30]; cited from earlier work
# A1AR [7] = settings: FR 100 nM; cited from earlier work
# T3 sequence (P47900 whole entry): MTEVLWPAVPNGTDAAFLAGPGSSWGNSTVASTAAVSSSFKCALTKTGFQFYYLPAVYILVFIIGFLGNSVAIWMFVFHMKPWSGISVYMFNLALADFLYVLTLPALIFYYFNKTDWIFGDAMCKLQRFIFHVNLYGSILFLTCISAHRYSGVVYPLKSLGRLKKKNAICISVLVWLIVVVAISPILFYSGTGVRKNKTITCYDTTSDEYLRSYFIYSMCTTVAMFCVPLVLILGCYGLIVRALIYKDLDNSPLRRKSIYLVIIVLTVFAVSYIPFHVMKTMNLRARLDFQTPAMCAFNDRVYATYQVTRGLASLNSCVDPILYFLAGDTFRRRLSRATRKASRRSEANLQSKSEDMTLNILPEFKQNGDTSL
# T1 sequence (P29274 whole entry): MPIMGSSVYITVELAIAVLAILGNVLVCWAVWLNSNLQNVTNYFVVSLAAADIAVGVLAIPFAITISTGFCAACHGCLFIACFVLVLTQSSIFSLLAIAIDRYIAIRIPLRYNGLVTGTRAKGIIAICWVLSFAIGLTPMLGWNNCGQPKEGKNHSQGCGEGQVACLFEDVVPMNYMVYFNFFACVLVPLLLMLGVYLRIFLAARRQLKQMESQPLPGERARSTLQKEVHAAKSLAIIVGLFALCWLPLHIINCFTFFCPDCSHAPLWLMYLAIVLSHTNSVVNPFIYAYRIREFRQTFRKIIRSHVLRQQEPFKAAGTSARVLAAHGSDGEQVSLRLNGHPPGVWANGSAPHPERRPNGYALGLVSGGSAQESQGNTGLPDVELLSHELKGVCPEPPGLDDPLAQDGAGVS
Compound,Effect on A1AR (CCPA)-mediated calcium mobilization (A1AR [2]),Effect on native P2Y1R (MRS2365)-triggered calcium mobilization (P2Y1R [3]),"Effect on formoterol-induced calcium mobilization (β2-adrenergic receptor) (β2-adrenergic receptor; FR 300 nM, YM 1 µM, PMA 1 µM)",Effect on native A2BAR (NECA)-triggered calcium mobilization (A2BAR),Effect on P2Y1R (MRS2365)-mediated calcium mobilization (P2Y1R [5]),Sensitivity of P2Y1R calcium mobilization to modulator (P2Y1R [6]),further results
"C=C1C(=O)NC(C)C(=O)N(C)C(C)C(=O)NC(C(OC(=O)C(NC(C)=O)C(O)C(C)C)C(C)C)C(=O)N(C)C(C(C)OC)C(=O)OC(C)C(NC(C)=O)C(=O)OC(Cc2ccccc2)C(=O)N1C (centres unmarked) [YM, YM254890] (Ac-T[PhLac][NMeDha]A[NMeA][X2][NMeT](Me); ester 1-C; configuration not given here)",inhibited; also recorded: YM and FR – fully sensitive (2),completely inhibited; also recorded: YM – fully sensitive (4),YM – partially sensitive (6),little if any effect; also recorded: FR and YM insensitive (4); Gαq/11 siRNA insensitive (4),inhibited; also recorded: fully sensitive,YM sensitive,"IC50 (M2 muscarinic receptor): 9.53 nM; IC50 (A1AR [1]): 11.6 nM; Effect on A2AAR-mediated stimulation of cAMP accumulation (A2AAR): did not affect; Effect on LPA-induced intracellular calcium mobilization (LPA receptor; YM 300 nM): completely inhibited; IC50 (A1AR [2]; HEK293 cells, overexpressed A1AR, agonist CCPA 1 µM, read-out: IC50 for inhibition of A1AR-mediated calcium mobilization): 12.9 ± 2.52 nM; Inhibition of the maximum effect (Emax) of formoterol, calcium mobilization (β2-adrenergic receptor; YM 1 µM): 78%; Effect on A1AR-mediated inhibition of cAMP accumulation (A1AR [4]): did not affect; IC50 (P2Y1R [5]; agonist MRS2365 1 µM, read-out: IC50 to inhibit P2Y1R-mediated calcium mobilization): 12.8 ± 4.1 nM"
CSc1nc(N)c2ncn([C@H]3[C@H](O)[C@H](O)[C@]4(COP(=O)(O)OP(=O)(O)O)C[C@H]34)c2n1 [MRS2365],–,–,–,–,–,–,EC50 (P2Y1R [3]; absence of PTX): 1.38 ± 0.26 nM
"CCCCCCCCCCCCCC(=O)O[C@@H]1[C@@H](C)[C@@]2(O)[C@@H](C=C(CO)C[C@]3(O)C(=O)C(C)=C[C@@H]23)[C@@H]2C(C)(C)[C@]12OC(C)=O [PMA, phorbol 12-myristate 13-acetate]",–,completely eliminated,completely diminished; also recorded: PMA completely sensitive (8),partially diminished; also recorded: PMA partially sensitive (8),–,–,"Effect on isoproterenol-induced calcium mobilization (β2-adrenergic receptor) (β2-adrenergic receptor; FR 300 nM, PMA 1 µM): completely diminished"
lysophosphatidic acid [LPA],–,–,–,–,–,–,"EC50 (LPA receptor; endogenous LPA receptor, read-out: EC50 of induced intracellular calcium mobilization): 4.59 µM"
COc1ccc2c(c1)CC[C@@H]1[C@@H]2CC[C@]2(C)[C@@H](NCCCCCCN3C(=O)C=CC3=O)CC[C@@H]12 [U73122],–,–,–,completely inhibited,–,–,–
Pertussis toxin [PTX],completely inhibited; also recorded: PTX sensitive (1),no effect; also recorded: PTX insensitive (5),did not produce significant attenuation; also recorded: PTX not sensitive (6),diminished; also recorded: PTX sensitive (5),no effect; also recorded: PTX insensitive (1),PTX insensitive,"Sensitivity of NECA-induced Ca2+ increase to toxin (HMC-1 cells): ^b NECA-induced Ca^2+ increase in HMC-1 cells was insensitive to CTX and PTX, Feoktistov et al., 1995 [30]; Effect on A1AR-mediated Akt1/2/3 phosphorylation (A1AR [7]): completely inhibited"
